Experimental data published in article PMC7606276, “The Antibacterial Effects of New N-Alkylpyridinium Salts on Planktonic and Biofilm Bacteria” (Frontiers in Microbiology, 2020).
Where two headings read alike, the source gives them in different places.

Columns and labels:
[1] = tested on: CHO-K1 cells; experiment: MTT cell viability assay on CHO-K1 cells; assay type: cell-based, Chinese hamster; conditions: 24 h exposure
Protocol: Standard MTT assay (3-(4,5-dimethylthiazol-2-yl)-2,5-diphenyltetrazolium bromide; Sigma-Aldrich, Prague, Czechia) was used according to the manufacturer’s protocol on the CHO-K1 (Chinese hamster ovary, ECACC, Salisbury, United Kingdom) in order to compare the effect of different compounds within the series. The cells were cultured according to ECACC recommended conditions and seeded in a density of 8000 per well as described previously ([Soukup et al., 2020]). […] Thereafter, CHO-K1 cells were exposed to two-fold diluted series A, B, C or ten-fold diluted sodium hypochlorite for 24 h. Then the medium was replaced by a medium containing 0.5 mg/ml of MTT and the cells were allowed to produce formazan for approximately 3 h under surveillance. Thereafter, the medium with MTT was removed and crystals of formazan were dissolved in DMSO (100 μl/well). Cell viability was assessed spectrophotometrically by the amount of formazan produced. The absorbance was measured at 570 nm on Synergy HT (BioTek, Winooski, VT, United States). IC50 (half maximal inhibitory concentration) was then calculated from the control – subtracted triplicates using non-linear regression (four parameters) by GraphPad Prism 5.03 or 7.03 software (GraphPad Software Inc., San Diego, CA, United States). Final IC50 and SEM (standard error of the mean) values were obtained as a mean of three independent measurements.

[2] = tested on: E. faecalis biofilms on titanium surface; experiment: Biofilm susceptibility assay, live/dead staining CLSM; assay type: cell-based, Enterococcus faecalis; conditions: for biofilm surface coverage change during the treatment: 1, 3 and 60 min of treatment; for proportion of live cells in biofilm: after 60 min of treatment
Protocol: To grow the biofilms, an overnight culture of E. faecalis (average viable bacterial concentration of 1 × 10^8 CFU/ml) was diluted 100-fold in BHI. E. faecalis biofilms were formed on titanium radial disks (commercially pure titanium, grade 2) with 7 mm diameter and 1 mm thickness. Prior to the experiments all disks were sandblasted (FerroEcoBlast Europe; Microblast ceramic beads B120) to expose fresh titanium surface, cleaned in 70% ethanol and autoclaved at 134°C for 20 min. The biofilms were grown for 3 days at 37°C ± 1°C without shaking or changing of media to achieve a surface coverage of approximately 25% and a surface bacterial density of ∼1.5 × 10^11 bacteria […]. Biofilms grown on a titanium surface were exposed to 1.5 ml of A14, B14, and C14 dissolved in BHI for 1, 3, and 60 min. After treatment the individual disks were rinsed with saline solution to remove QACs as well as unattached bacteria. In laser treated biofilms samples were treated with QACs for 1 min followed by 10 s of Er:YAG – SSP laser treatment. The LightWalker Er:YAG (Fotona, Ljubljana, Slovenia) was set with the following parameters: laser wavelength 2940 nm; contact handpiece H14, Flat Sweeps fiber tip 400/14 positioned 5 mm above the biofilm disk, energy 20 mJ, frequency 15 Hz, water off, air off, single pulse modality – SSP (super short pulse – 50 μs). The titanium disks with their biofilm were positioned at the bottom of cylindrical irrigation system (7.5 mm diameter and 2 cm high) in the presence of 1.5 ml of either saline or the QAC dissolved in BHI. The antibacterial concentration was 250 μM which was the highest soluble QAC concentration in BHI broth. The rinsed biofilms were stained with 5 μL of premixed saline-diluted Syto 9 and propidium iodide stock solutions (1: 300) from LIVE/DEAD^TM BacLight^TM Bacterial Viability Kit L7012 (Thermo Fisher Scientific, Eugene, OR, United States). After 5 min of incubation in the dark the samples were observed by fluorescence microscope Zeiss Axio Observer Z1 equipped with confocal unit LSM 800 (CLSM). Z-stacks and tiles were taken at 100× or 20× magnification at three randomly selected view fields. Image acquisition and control of the microscope were performed with ZEN 2.3 (ZEISS GmbH, Germany). For the 100× magnification, blue 488 nm and yellow 561 nm lasers were set to 1% intensity, GaAsP PMT detectors to 700 V, pinhole to 71 μm, and the size of the acquired 8-bit images was 3476 × 3476 pixels. For the 20× magnification, blue 488 nm and yellow 561 nm lasers were set to 0.85% intensity, GaAsP PMT detectors to 700 V, pinhole to 50 μm and the size of acquired 8-bit images was 1306 × 1306 pixels. The typical Z-step of the Z-stack was 1 μm for 100× magnification and 3.26 μm for 20× magnification. The images were composed of four different view fields. A custom script was written (Image J) and used to evaluate the effect of treatment on the fraction of dead cells and biofilm surface coverage.

[3] = tested on: E. faecalis plankton and biofilm; experiment: Comparison of effectiveness in plankton and biofilm (matched fraction of dead cells); assay type: cell-based, Enterococcus faecalis; conditions: for dilution in plankton needed to match the fraction of dead cells in the biofilm: high density E. faecalis suspension 2.4 × 10^9 CFU/mL
Source text: In plankton suspensions we were able to reach bactericidal concentration for all tested QACs. The situation was quite different in biofilms. The concentrations that work in plankton were not sufficient to kill all bacteria in the biofilm. […] Unfortunately, due to the solubility limit, it was not possible to increase the concentration of the QACs to concentrations that would kill all bacteria in the biofilm. Nevertheless, we can compare the effectiveness in plankton and biofilm if we decrease the concentration of biocide in the plankton to match the fraction of the dead cells in the biofilm. […] The experiment was performed at high density E. faecalis suspensions (2.4 × 10^9 CFU/mL) to mimic the high density of bacteria in a biofilm. By comparing QACs effectiveness at high initial planktonic densities we have largely eliminated the effect of the bacterial density and estimated the effect of biofilm induced changes on QACs sensitivity. One has to be careful, however, as bacterial cells in plankton differ from biofilm not only in cell density but also in cell metabolism and extracellular matrix viscoelasticity. To match the fraction of dead cells in the biofilm, the 10-fold dilution of compounds A14 and B14 were needed, whereas only 4-fold dilution of compound C14 was required. […] The activity of QACs in biofilms relative to plankton was two orders of magnitude […] than usually reported in the literature. Although our biofilms were mature, they were relatively thin (up to 10 μm) which may explain the relatively high efficiency of the QACs against biofilms. Similar observations have been made for S. mutans biofilms, where biofilm cells were only 8 times less susceptible to QACs compared to plankton bacteria ([López Pérez et al., 2017]).

[4] = tested on: Enterococcus faecalis DSM 16431; experiment: MBC of planktonic E. faecalis at different initial bacterial densities; assay type: cell-based
Protocol: The antibacterial susceptibility of planktonic bacteria was determined by the broth microdilution method according to the standard M07-A1 ([CLSI, 2018]) and optimized as described previously ([Marek et al., 2015]; [Dolezal et al., 2016]). All antibacterial compounds were dissolved in dimethyl sulfoxide (DMSO p.a., Sigma-Aldrich, Prague, Czechia). The wells of the 96-well microtiter plates contained 200 μL of Mueller-Hinton broth (MHB, HiMedia, Cadersky-Envitek, Prague, Czechia) with two-fold serial dilutions of the QACs (500–0.49 μmol/L) and were inoculated with 10 μL of exponentially grown bacterial suspension adjusted densitometrically to match 0.5 McFarland scale. […] The MBCs were determined for all prepared compounds as the concentrations that provided ≥99.9% decrease in the bacterial number after subculture of 10 μL aliquots from each microtiter well in a corresponding new microtiter plate where each well contained 200 μL of fresh MHB. The MBC was determined as the lowest concentration which corresponded to a well without visible bacterial growth after a further 24 h of incubation at 35 ± 1°C. To ensure that no bacteria had survived, the content of the well was inoculated on an agar plate to confirm the absence of bacterial growth.
To evaluate the effect of bacterial density on the antibacterial activity of the QACs, E. faecalis suspensions from an overnight culture were prepared in the range from 10^6 to 10^10 CFU/mL in Brain Heart Infusion broth (BHI, VWR International BVBA, Leuven, Belgium) by either diluting or concentrating bacterial suspensions. The MBCs corresponding to E. faecalis suspensions with different initial bacterial densities were determined only for the compound A14 in the concentration range between 500 and 0.49 μM prepared by 2-fold serial dilutions. The MBCs were evaluated as described above after the bacteria were exposed to the QACs for 3 min, 60 min or 24 h. The growth rate of tested E. faecalis suspensions at different initial bacterial densities was monitored every 30 min during 7 h of incubation by measuring the optical density (OD600). The values were fitted with the logistic equation

[5] = tested on: osteosarcoma cybrid cells; set-up: method as in Datta et al., 2017; conditions: cytotoxicity, ref Datta et al., 2017; cited from earlier work
[6] = tested on: human hepatoma cell line; set-up: method as in Christen et al., 2017; conditions: cytotoxicity, ref Christen et al., 2017; cited from earlier work
[7] = tested on: Human alveolar cells; set-up: method as in Kwon et al., 2019; conditions: cytotoxicity, ref Kwon et al., 2019; cited from earlier work

Compound: CCCCCCCCCCCC[n+]1cccc(Cl)c1.[Br-] [Compound B12, 1-dodecyl-3-chloropyridinium bromide]
- IC50 ([1]; Cricetulus griseus): 25.5 ± 2.5 µM
- melting point: 68.5 to 69.2 °C

Compound: CCCCCCCCCCCC[n+]1ccccc1 [Compound A12, 1-dodecylpyridinium]
- IC50 ([1]; Cricetulus griseus): 38.8 ± 0.9 µM

Compound: CCCCCCCCCCCCCC[n+]1ccn(CCO)c1.[Br-] [Compound C14, 3-tetradecyl-1-(2-hydroxyethyl)imidazolium bromide]
- IC50 ([1]; Cricetulus griseus): 1.19 ± 0.9 µM
- biofilm surface coverage change during the treatment ([2]; 250 μM): did not change significantly
- fraction of dead cells in biofilm ([2]; after 1 min of treatment, 250 μM): majority of cells in the biofilm were dead
- fraction of dead bacteria in biofilm ([2]; after 3 min of treatment, 250 μM): 86 ± 4%
- proportion of live cells in biofilm ([2]; 250 μM): 3%
- resistance of biofilm bacteria compared to planktonic bacteria [3]: 4 fold
- dilution in plankton needed to match the fraction of dead cells in the biofilm [3]: 4 fold

Compound: CCCCCCCCCCCCCC[n+]1cccc(Cl)c1.[Br-] [Compound B14, 1-tetradecyl-3-chloropyridinium bromide]
- IC50 ([1]; Cricetulus griseus): 17.2 ± 1.3 µM
- biofilm surface coverage change during the treatment ([2]; 250 μM): did not change significantly
- proportion of live cells in biofilm ([2]; 250 μM): 14%
- dilution in plankton needed to match the fraction of dead cells in the biofilm [3]: 10 fold

Compound: CCCCCCCCCCCCCCCC[n+]1cccc(Cl)c1.[Br-] [Compound B16, 1-hexadecyl-3-chloropyridinium bromide]
- IC50 ([1]; Cricetulus griseus): 12.5 ± 1.1 µM
- melting point: 91.4 to 92.2 °C

Compound: [Na+].[O-]Cl [Sodium hypochlorite, reference compound]
- IC50 [1]: 6.45 ± 1.1 µM
- biofilm coverage ([2]; after 1 min of exposure, 3% V/V, positive control): below 1%

Compound: CCCCCCCCCCCCCCCC[n+]1ccn(CCO)c1 [Compound C16]
- IC50 ([1]; Cricetulus griseus): 1.03 ± 1 µM
- melting point: 49.2 to 50.1 °C

Compound: CCCCCCCCCCCCCC[n+]1ccccc1 [Compound A14]
- MBC ([4]; DSM16431, 0.05 h, 3 min exposure, initial CFU/mL 10^6, read-out: MBC 3 min): 63 µM
- MBC ([4]; DSM16431, 0.05 h, 3 min exposure, initial CFU/mL 10^7, read-out: MBC 3 min): 63 µM
- MBC ([4]; DSM16431, 0.05 h, 3 min exposure, initial CFU/mL 10^8, read-out: MBC 3 min): 31 to 63 µM
- MBC ([4]; DSM16431, 0.05 h, 3 min exposure, initial CFU/mL 10^9, read-out: MBC 3 min): 250 µM
- MBC ([4]; DSM16431, 0.05 h, 3 min exposure, initial CFU/mL 10^10, read-out: MBC 3 min): > 250 µM
- MBC ([4]; DSM16431, 1 h, 60 min exposure, initial CFU/mL 10^6, read-out: MBC 60 min): 31 µM
- MBC ([4]; DSM16431, 1 h, 60 min exposure, initial CFU/mL 10^7, read-out: MBC 60 min): 31 µM
- MBC ([4]; DSM16431, 1 h, 60 min exposure, initial CFU/mL 10^8, read-out: MBC 60 min): 63 µM
- MBC ([4]; DSM16431, 1 h, 60 min exposure, initial CFU/mL 10^9, read-out: MBC 60 min): 125 µM
- MBC ([4]; DSM16431, 1 h, 60 min exposure, initial CFU/mL 10^10, read-out: MBC 60 min): 250 µM
- MBC ([4]; DSM16431, 24 h, 24 h exposure, initial CFU/mL 10^6, read-out: MBC 24 h): 16 to 31 µM
- MBC ([4]; DSM16431, 24 h, 24 h exposure, initial CFU/mL 10^7, read-out: MBC 24 h): 16 to 31 µM
- MBC ([4]; DSM16431, 24 h, 24 h exposure, initial CFU/mL 10^8, read-out: MBC 24 h): 31 µM
- MBC ([4]; DSM16431, 24 h, 24 h exposure, initial CFU/mL 10^9, read-out: MBC 24 h): 31 to 63 µM
- MBC ([4]; DSM16431, 24 h, 24 h exposure, initial CFU/mL 10^10, read-out: MBC 24 h): 250 µM
- MBC ([4]; DSM16431, 24 h, after 24 h, 10^6 CFU/ml initial bacterial density, read-out: relative MBC value per bacterial cell): 2.1e-05 µM
- MBC ([4]; DSM16431, 24 h, after 24 h, 10^10 CFU/ml initial bacterial density, read-out: relative MBC value per bacterial cell): 2.7e-08 µM
- IC50 ([1]; Cricetulus griseus): 24.7 ± 0.2 µM
- biofilm surface coverage change during the treatment ([2]; 250 μM): did not change significantly
- proportion of live cells in biofilm ([2]; 250 μM): 18%
- dilution in plankton needed to match the fraction of dead cells in the biofilm [3]: 10 fold

Compound: CCCCCCCCCCCC[n+]1ccn(CCO)c1 [Compound C12]
- IC50 ([1]; Cricetulus griseus): 1.43 ± 3 µM

Compound: benzalkonium chloride
- IC50 [5]: ~22.8 µM
- EC50 [6]: ~12.4 µM
- IC50 [7]: ~14.8 µM
